{"source": "patent US20100041089A1", "about": "“IMPROVED METHOD FOR DETECTING CHEMICAL […]” (priority 2006, published 2010)", "tested_on": "yeast genes (expressed mRNA)", "assay": "DNA chip measurement of expressed mRNA of yeast genes after culture with a toxic chemical substance", "assay_type": "cell-based, Saccharomyces cerevisiae S288C", "details": "for level of expressed mRNA in the presence of chemical substance / level in the absence of chemical substance: cultured two hours with the chemical substance; for The level of expressed mRNA in the presence of chemical substance/The level of expressed mRNA in the absence of chemical substance: cultured two hours with substance", "how_it_was_run": "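S. cerevisiae S288C grown at 25 °C in YPD, exposed in log phase for 2 h to a toxicant at growth-inhibiting, non-lethal concentration. Cy3/Cy5-labelled cDNA from poly(A) mRNA hybridized to whole-genome chip at 65 °C >12 h. Ratio to untreated control, ≥2 significant.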"}
{"smiles": "[Cl][Pb][Cl]", "note": "[(4), PbCl2]", "values": [{"measurement": "The level of expressed mRNA in the presence of chemical substance/The level of expressed mRNA in the absence of chemical substance, yeast gene YBR036C", "setting": "gene YBR036C, Metabolism protein genes, DNA chip fluorescence ratio", "result": 1.2}, {"measurement": "The level of expressed mRNA in the presence of chemical substance/The level of expressed mRNA in the absence of chemical substance, yeast gene YBR298C", "setting": "gene YBR298C, Metabolism protein genes, DNA chip fluorescence ratio", "result": 2.3}, {"measurement": "The level of expressed mRNA in the presence of chemical substance/The level of expressed mRNA in the absence of chemical substance, yeast gene YDL067C", "setting": "gene YDL067C (mitochondria-located protein gene), yeast cultured two hours with chemical substance, DNA chip fluorescence ratio to control", "result": 1.3}, {"measurement": "The level of expressed mRNA in the presence of chemical substance/The level of expressed mRNA in the absence of chemical substance, yeast gene YDL078C", "setting": "gene YDL078C, Metabolism protein genes, DNA chip fluorescence ratio", "result": 0.8}, {"measurement": "The level of expressed mRNA in the presence of chemical substance/The level of expressed mRNA in the absence of chemical substance, yeast gene YDL215C", "setting": "gene YDL215C, Metabolism protein genes, DNA chip fluorescence ratio", "result": 1.6}, {"measurement": "The level of expressed mRNA in the presence of chemical substance/The level of expressed mRNA in the absence of chemical substance, yeast gene YDR079W", "setting": "gene YDR079W (mitochondria-located protein gene), yeast cultured two hours with chemical substance, DNA chip fluorescence ratio to control", "result": 1.1}, {"measurement": "The level of expressed mRNA in the presence of chemical substance/The level of expressed mRNA in the absence of chemical substance, yeast gene YDR297W", "setting": "gene YDR297W, Metabolism protein genes, DNA chip fluorescence ratio", "result": 1.1}, {"measurement": "The level of expressed mRNA in the presence of chemical substance/The level of expressed mRNA in the absence of chemical substance, yeast gene YDR387C", "setting": "gene YDR387C, Metabolism protein genes, DNA chip fluorescence ratio", "result": 2.2}, {"measurement": "The level of expressed mRNA in the presence of chemical substance/The level of expressed mRNA in the absence of chemical substance, yeast gene YGL035C", "setting": "gene YGL035C, Metabolism protein genes, DNA chip fluorescence ratio", "result": 1.4}, {"measurement": "The level of expressed mRNA in the presence of chemical substance/The level of expressed mRNA in the absence of chemical substance, yeast gene YGR062C", "setting": "gene YGR062C (mitochondria-located protein gene), yeast cultured two hours with chemical substance, DNA chip fluorescence ratio to control", "result": 1.4}, {"measurement": "The level of expressed mRNA in the presence of chemical substance/The level of expressed mRNA in the absence of chemical substance, yeast gene YGR287C", "setting": "gene YGR287C, Metabolism protein genes, DNA chip fluorescence ratio", "result": 1.5}, {"measurement": "The level of expressed mRNA in the presence of chemical substance/The level of expressed mRNA in the absence of chemical substance, yeast gene YJL070C", "setting": "gene YJL070C, Metabolism protein genes, DNA chip fluorescence ratio", "result": 1.2}, {"measurement": "The level of expressed mRNA in the presence of chemical substance/The level of expressed mRNA in the absence of chemical substance, yeast gene YJL096W", "setting": "gene YJL096W (mitochondria-located protein gene), yeast cultured two hours with chemical substance, DNA chip fluorescence ratio to control", "result": 1.3}, {"measurement": "The level of expressed mRNA in the presence of chemical substance/The level of expressed mRNA in the absence of chemical substance, yeast gene YJL180C", "setting": "gene YJL180C (mitochondria-located protein gene), yeast cultured two hours with chemical substance, DNA chip fluorescence ratio to control", "result": 1.3}, {"measurement": "The level of expressed mRNA in the presence of chemical substance/The level of expressed mRNA in the absence of chemical substance, yeast gene YKR009C", "setting": "gene YKR009C, Metabolism protein genes, DNA chip fluorescence ratio", "result": 0.9}, {"measurement": "The level of expressed mRNA in the presence of chemical substance/The level of expressed mRNA in the absence of chemical substance, yeast gene YLR295C", "setting": "gene YLR295C (mitochondria-located protein gene), yeast cultured two hours with chemical substance, DNA chip fluorescence ratio to control", "result": 1.7}, {"measurement": "The level of expressed mRNA in the presence of chemical substance/The level of expressed mRNA in the absence of chemical substance, yeast gene YLR351C", "setting": "gene YLR351C, Metabolism protein genes, DNA chip fluorescence ratio", "result": 1.5}, {"measurement": "The level of expressed mRNA in the presence of chemical substance/The level of expressed mRNA in the absence of chemical substance, yeast gene YLR375W", "setting": "gene YLR375W, Metabolism protein genes, DNA chip fluorescence ratio", "result": 0.9}, {"measurement": "The level of expressed mRNA in the presence of chemical substance/The level of expressed mRNA in the absence of chemical substance, yeast gene YMR023C", "setting": "gene YMR023C (mitochondria-located protein gene), yeast cultured two hours with chemical substance, DNA chip fluorescence ratio to control", "result": 1.9}, {"measurement": "The level of expressed mRNA in the presence of chemical substance/The level of expressed mRNA in the absence of chemical substance, yeast gene YMR267W", "setting": "gene YMR267W (mitochondria-located protein gene), yeast cultured two hours with chemical substance, DNA chip fluorescence ratio to control", "result": 0.9}, {"measurement": "The level of expressed mRNA in the presence of chemical substance/The level of expressed mRNA in the absence of chemical substance, yeast gene YMR267W", "setting": "gene YMR267W, Metabolism protein genes, DNA chip fluorescence ratio", "result": 0.9}, {"measurement": "The level of expressed mRNA in the presence of chemical substance/The level of expressed mRNA in the absence of chemical substance, yeast gene YMR278W", "setting": "gene YMR278W, Metabolism protein genes, DNA chip fluorescence ratio", "result": 1.0}, {"measurement": "The level of expressed mRNA in the presence of chemical substance/The level of expressed mRNA in the absence of chemical substance, yeast gene YMR293C", "setting": "gene YMR293C, Metabolism protein genes, DNA chip fluorescence ratio", "result": 2.2}, {"measurement": "The level of expressed mRNA in the presence of chemical substance/The level of expressed mRNA in the absence of chemical substance, yeast gene YNL073W", "setting": "gene YNL073W (mitochondria-located protein gene), yeast cultured two hours with chemical substance, DNA chip fluorescence ratio to control", "result": 1.7}, {"measurement": "The level of expressed mRNA in the presence of chemical substance/The level of expressed mRNA in the absence of chemical substance, yeast gene YNR072W", "setting": "gene YNR072W, Metabolism protein genes, DNA chip fluorescence ratio", "result": 0.7}, {"measurement": "The level of expressed mRNA in the presence of chemical substance/The level of expressed mRNA in the absence of chemical substance, yeast gene YOL096C", "setting": "gene YOL096C, Metabolism protein genes, DNA chip fluorescence ratio", "result": 1.6}, {"measurement": "The level of expressed mRNA in the presence of chemical substance/The level of expressed mRNA in the absence of chemical substance, yeast gene YOR180C", "setting": "gene YOR180C, Metabolism protein genes, DNA chip fluorescence ratio", "result": 1.0}, {"measurement": "The level of expressed mRNA in the presence of chemical substance/The level of expressed mRNA in the absence of chemical substance, yeast gene YOR316C", "setting": "gene YOR316C (mitochondria-located protein gene), yeast cultured two hours with chemical substance, DNA chip fluorescence ratio to control", "result": 1.5}, {"measurement": "The level of expressed mRNA in the presence of chemical substance/The level of expressed mRNA in the absence of chemical substance, yeast gene YOR363C", "setting": "gene YOR363C, Metabolism protein genes, DNA chip fluorescence ratio", "result": 1.3}, {"measurement": "The level of expressed mRNA in the presence of chemical substance/The level of expressed mRNA in the absence of chemical substance, yeast gene YPL040C", "setting": "gene YPL040C (mitochondria-located protein gene), yeast cultured two hours with chemical substance, DNA chip fluorescence ratio to control", "result": 1.7}, {"measurement": "The level of expressed mRNA in the presence of chemical substance/The level of expressed mRNA in the absence of chemical substance, yeast gene YPL134C", "setting": "gene YPL134C (mitochondria-located protein gene), yeast cultured two hours with chemical substance, DNA chip fluorescence ratio to control", "result": 1.6}, {"measurement": "The level of expressed mRNA in the presence of chemical substance/The level of expressed mRNA in the absence of chemical substance, yeast gene YPR184W", "setting": "gene YPR184W, Metabolism protein genes, DNA chip fluorescence ratio", "result": 2.2}, {"measurement": "level of expressed mRNA in the presence of chemical substance / level in the absence of chemical substance", "setting": "yeast gene YAL018C", "result": 11.3}, {"measurement": "The level of expressed mRNA in the presence of chemical substance/The level of expressed mRNA in the absence of chemical substance", "setting": "yeast gene YAL053W", "result": 2.1}, {"measurement": "level of expressed mRNA in the presence of chemical substance / level in the absence of chemical substance", "setting": "yeast gene YAR047C", "result": 0.7}, {"measurement": "level of expressed mRNA in the presence of chemical substance / level in the absence of chemical substance", "setting": "yeast gene YAR064W", "result": 2.8}, {"measurement": "level of expressed mRNA in the presence of chemical substance / level in the absence of chemical substance", "setting": "yeast gene YBL044W", "result": 0.8}, {"measurement": "The level of expressed mRNA in the presence of chemical substance/The level of expressed mRNA in the absence of chemical substance", "setting": "yeast gene YBL048W", "result": 2.8}, {"measurement": "The level of expressed mRNA in the presence of chemical substance/The level of expressed mRNA in the absence of chemical substance", "setting": "yeast gene YBL107C", "result": 1.5}, {"measurement": "level of expressed mRNA in the presence of chemical substance / level in the absence of chemical substance", "setting": "yeast gene YBR012C", "result": 0.8}, {"measurement": "level of expressed mRNA in the presence of chemical substance / level in the absence of chemical substance", "setting": "yeast gene YBR066C", "result": 1.6}, {"measurement": "level of expressed mRNA in the presence of chemical substance / level in the absence of chemical substance", "setting": "yeast gene YBR124W", "result": 0.4}, {"measurement": "level of expressed mRNA in the presence of chemical substance / level in the absence of chemical substance", "setting": "yeast gene YBR162C", "result": 0.8}, {"measurement": "level of expressed mRNA in the presence of chemical substance / level in the absence of chemical substance", "setting": "yeast gene YBR287W", "result": 2.4}, {"measurement": "level of expressed mRNA in the presence of chemical substance / level in the absence of chemical substance", "setting": "yeast gene YCL056C", "result": 1.0}, {"measurement": "level of expressed mRNA in the presence of chemical substance / level in the absence of chemical substance", "setting": "yeast gene YCR007C", "result": 2.9}, {"measurement": "level of expressed mRNA in the presence of chemical substance / level in the absence of chemical substance", "setting": "yeast gene YDL046W", "result": 1.3}, {"measurement": "The level of expressed mRNA in the presence of chemical substance/The level of expressed mRNA in the absence of chemical substance", "setting": "yeast gene YDL072C", "result": 2.1}, {"measurement": "The level of expressed mRNA in the presence of chemical substance/The level of expressed mRNA in the absence of chemical substance", "setting": "yeast gene YDL204W", "result": 3.4}, {"measurement": "The level of expressed mRNA in the presence of chemical substance/The level of expressed mRNA in the absence of chemical substance", "setting": "yeast gene YDL222C", "result": 3.9}, {"measurement": "level of expressed mRNA in the presence of chemical substance / level in the absence of chemical substance", "setting": "yeast gene YDR090C", "result": 1.2}, {"measurement": "level of expressed mRNA in the presence of chemical substance / level in the absence of chemical substance", "setting": "yeast gene YDR128W", "result": 0.9}]}
